Experimental data from US8207157B2, “Methods and compositions for repelling arthropods” (The United States of America, as represented by the …, priority 2006, dated 2012).

Assays:
[1] = test system: female Aedes aegypti mosquitoes; experiment: Non-competitive olfactometer bioassay of absolute attraction to attractants with or without candidate inhibitors; format: in vivo; conditions: for Attraction Mean ± SE (%): 50 μL heterocycle combined with 500 μL 3-compound attractant blend, line Blend = attractant alone; for Attraction with 50 μL 1-MPZ mean ± SE (%): 3 min
female Ae. aegypti = experiment: Competitive (two-port) olfactometer bioassay of attractants and inhibitors; format: in vivo, Aedes aegypti
Description: Mosquitoes choose to fly upwind into a port with the treatment or choose to remain in the cage. It is clear that in competition, these mosquitoes preferred the natural human odors over the blend by about a 5:1 margin.

[2] = test system: Anopheles albimanus mosquitoes; experiment: as above; format: in vivo; conditions: competing port: B + (1-MPZ) + (4-MM)

## OCCN1CCN(CCO)CC1 [1,4-bis(2-hydroxyethyl)piperazine]
[1]; listed as 1,4-bis (2-hydroxyethyl)piperazine-2,2′-1,4-diyldiethanol
  Attraction Mean ± SE (%): 73%

## CCCCCCCCN1CCN(C)CC1 [1M-4-OPZ, 1-methyl-4-octylpiperazine]
Female Ae. aegypti; port: B + (1-M-4-OPZ), competing port: B + (1-MPZ)
  Attraction mean ± SE (%), Treatment 2: 24.5 ± 4.4%

## CN1CCNCC1 [1-MPZ, 1-methylpiperazine]
Female Ae. aegypti; both ports: Human + 1-MPZ (50 μL) vs Blend, 97.2% without 1-MPZ
  Total Catch (%): 78.1%
Female Ae. aegypti; port: B + (1-MPZ), competing port: B + (1-M-4-OPZ)
  Attraction mean ± SE (%), Treatment 1: 4.6 ± 1.5%
Female Ae. aegypti; port: B + (1-MPZ), competing port: B + (1-MPZ) + (4-MM)
  Attraction mean ± SE (%), Treatment 2: 5.1 ± 1.1%
Female Ae. aegypti; port: B + (1-MPZ), competing port: B + (4-MM)
  Attraction mean ± SE (%), Treatment 1: 5.4 ± 1.3%
Female Ae. aegypti; port: Blend + inhibitor (50 μL each), competing port: Blend
  Attraction mean ± SE (%), Treatment with Inhibitor: 3.4 ± 1.0%
Female Ae. aegypti; port: Blend + inhibitor (50 μL each), competing port: RH odors
  Attraction mean ± SE (%), Treatment with Inhibitor: 0.9 ± 0.3%
Female Ae. aegypti; port: RH odors + inhibitor (50 μL each), competing port: Blend
  Attraction mean ± SE (%), Treatment with Inhibitor: 14.1 ± 2.7%
Female Ae. aegypti; port: RH odors + inhibitor (50 μL each), competing port: LH odors
  Attraction mean ± SE (%), Treatment with Inhibitor: 7.7 ± 1.2%
Female Ae. aegypti; port: human odor + 50 μL 1-MPZ, competing port: Blend
  Attraction ± SE (%), Treatment 1 port: 29.5 ± 3.2%
[2]; port: B + (1-MPZ)
  Attraction mean ± SE (%), Treatment 2: 9.7 ± 3.3%
[1]; attractant: 1 mL 3-compound blend
  Attraction with 50 μL 1-MPZ mean ± SE (%): 12.8 ± 1.8%
[1]; attractant: human arm/hand odor
  Attraction with 50 μL 1-MPZ mean ± SE (%): 23.5 ± 3.0%

## C1CNCCN1 [piperazine]
[1]
  Attraction Mean ± SE (%): 41.4%

## CN1CCOCC1 [4-MM, 4-methylmorpholine]
Female Ae. aegypti; port: B + (4-MM), competing port: B + (1-MPZ)
  Attraction mean ± SE (%), Treatment 2: 8.0 ± 1.1%
Female Ae. aegypti; port: B + (4-MM), competing port: B + (1-MPZ) + (4-MM)
  Attraction mean ± SE (%), Treatment 2: 5.1 ± 1.8%
[2]; port: B + (4-MM)
  Attraction mean ± SE (%), Treatment 2: 5.2 ± 2.0%
